Results taken from patent US20230085307A1, “PYRIDAZINONE COMPOUND AND HERBICIDE” (NISSAN CHEMICAL CORPORATION, priority 2019, published 2023).

Experiments:
persian speedwell [1] = test: Test Example 4: herbicidal effect by soil treatment (Table 19, symbol R); format: in vivo, Persian speedwell (Veronica persica); conditions: amount of applied herbicide 320 g/ha
Method in brief: (§1)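 Scoring uses the grading scale of an earlier test, three weeks post-application. Treatment consists of spraying a diluted emulsion formulation across the surface of sterilized diluvial soil in which seeds are buried near 1.5 cm deep; boxes are kept in a greenhouse between 25° C. and 30° C.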

blackgrass [2] = test: Test Example 4: herbicidal effect by soil treatment (Table 19, symbol J); format: in vivo, blackgrass (Alopecurus myosuroides); conditions: amount of applied herbicide 320 g/ha
Method in brief: as §1

chickweed [3] = test: Test Example 5: herbicidal effect by foliage application, plastic box (Table 20, symbol P); format: in vivo, common chickweed (Stellaria media); conditions: amount of applied herbicide 320 g/ha; foliage application after 14-day growth; evaluated three weeks after application
Method in brief: (§2)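 Post-emergence foliar test in sterilized diluvial soil. Compound applied as water-diluted emulsion at a predetermined rate to 14-day-old plants; evaluation at three weeks.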

redroot pigweed [4] = test: Test Example 4: herbicidal effect by soil treatment (Table 19, symbol N); format: in vivo, redroot pigweed (Amaranthus retroflexus); conditions: amount of applied herbicide 320 g/ha
Method in brief: as §1

wild oat [5] = test: Test Example 5: herbicidal effect by foliage application, plastic box (Table 20, symbol I); format: in vivo, wild oat (Avena fatua); conditions: amount of applied herbicide 320 g/ha; foliage application after 14-day growth; evaluated three weeks after application
Method in brief: as §2

barnyard grass [6] = test: Test Example 3: herbicidal effect by foliage application, Wagner pot (Table 18, symbol H); format: in vivo, barnyard grass (Echinochloa crus-galli); conditions: 320 g/ha
Method in brief: (§3)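 Plants were sown in alluvial soil held under 0.1–0.5 cm standing water and grown 14 days in a greenhouse at 25–30 °C. An emulsifiable formulation, water-diluted to the set dose, was then sprayed onto the foliage, and effects were scored three weeks later using previously defined criteria.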

blackgrass [7] = test: Test Example 5: herbicidal effect by foliage application, plastic box (Table 20, symbol J); format: in vivo, blackgrass (Alopecurus myosuroides); conditions: amount of applied herbicide 320 g/ha; foliage application after 14-day growth; evaluated three weeks after application
Method in brief: as §2

green foxtail [8] = test: Test Example 4: herbicidal effect by soil treatment (Table 19, symbol G); format: in vivo, green foxtail (Setaria viridis); conditions: amount of applied herbicide 320 g/ha
Method in brief: as §1

windgrass [9] = test: Test Example 4: herbicidal effect by soil treatment (Table 19, symbol L); format: in vivo, windgrass (Apera spica-venti); conditions: amount of applied herbicide 320 g/ha
Method in brief: as §1

green foxtail [10] = test: Test Example 5: herbicidal effect by foliage application, plastic box (Table 20, symbol G); format: in vivo, green foxtail (Setaria viridis); conditions: amount of applied herbicide 320 g/ha; foliage application after 14-day growth; evaluated three weeks after application
Method in brief: as §2

windgrass [11] = test: Test Example 5: herbicidal effect by foliage application, plastic box (Table 20, symbol L); format: in vivo, windgrass (Apera spica-venti); conditions: amount of applied herbicide 320 g/ha; foliage application after 14-day growth; evaluated three weeks after application
Method in brief: as §2

southern crabgrass [12] = test: Test Example 4: herbicidal effect by soil treatment (Table 19, symbol F); format: in vivo, southern crabgrass (Digitaria ciliaris); conditions: amount of applied herbicide 320 g/ha
Method in brief: as §1

lambsquarters [13] = test: Test Example 5: herbicidal effect by foliage application, plastic box (Table 20, symbol O); format: in vivo, lambsquarters (Chenopodium album); conditions: amount of applied herbicide 320 g/ha; foliage application after 14-day growth; evaluated three weeks after application
Method in brief: as §2

redroot pigweed [14] = test: Test Example 5: herbicidal effect by foliage application, plastic box (Table 20, symbol N); format: in vivo, redroot pigweed (Amaranthus retroflexus); conditions: amount of applied herbicide 320 g/ha; foliage application after 14-day growth; evaluated three weeks after application
Method in brief: as §2

chickweed [15] = test: Test Example 4: herbicidal effect by soil treatment (Table 19, symbol P); format: in vivo, common chickweed (Stellaria media); conditions: amount of applied herbicide 320 g/ha
Method in brief: as §1

velvetleaf [16] = test: Test Example 5: herbicidal effect by foliage application, plastic box (Table 20, symbol M); format: in vivo, velvetleaf (Abutilon theophrasti); conditions: amount of applied herbicide 320 g/ha; foliage application after 14-day growth; evaluated three weeks after application
Method in brief: as §2

Chinese sprangletop = test: Test Example 3: herbicidal effect by foliage application, Wagner pot (Table 18, symbol D); format: in vivo, chinese sprangletop (Leptochloa chinensis); conditions: 320 g/ha
Method in brief: as §3

velvetleaf [17] = test: Test Example 4: herbicidal effect by soil treatment (Table 19, symbol M); format: in vivo, velvetleaf (Abutilon theophrasti); conditions: amount of applied herbicide 320 g/ha
Method in brief: as §1

wild oat [18] = test: Test Example 4: herbicidal effect by soil treatment (Table 19, symbol I); format: in vivo, wild oat (Avena fatua); conditions: amount of applied herbicide 320 g/ha
Method in brief: as §1

barnyard grass [19] = test: Test Example 4: herbicidal effect by soil treatment (Table 19, symbol H); format: in vivo, barnyard grass (Echinochloa crus-galli); conditions: amount of applied herbicide 320 g/ha
Method in brief: as §1

barnyard grass [20] = test: Test Example 5: herbicidal effect by foliage application, plastic box (Table 20, symbol H); format: in vivo, barnyard grass (Echinochloa crus-galli); conditions: amount of applied herbicide 320 g/ha; foliage application after 14-day growth; evaluated three weeks after application
Method in brief: as §2

lambsquarters [21] = test: Test Example 4: herbicidal effect by soil treatment (Table 19, symbol O); format: in vivo, lambsquarters (Chenopodium album); conditions: amount of applied herbicide 320 g/ha
Method in brief: as §1

Italian ryegrass [22] = test: Test Example 5: herbicidal effect by foliage application, plastic box (Table 20, symbol K); format: in vivo, Italian ryegrass (Lolium multiflorum); conditions: amount of applied herbicide 320 g/ha; foliage application after 14-day growth; evaluated three weeks after application
Method in brief: as §2

persian speedwell [23] = test: Test Example 5: herbicidal effect by foliage application, plastic box (Table 20, symbol R); format: in vivo, Persian speedwell (Veronica persica); conditions: amount of applied herbicide 320 g/ha; foliage application after 14-day growth; evaluated three weeks after application
Method in brief: as §2

Italian ryegrass [24] = test: Test Example 4: herbicidal effect by soil treatment (Table 19, symbol K); format: in vivo, Italian ryegrass (Lolium multiflorum); conditions: amount of applied herbicide 320 g/ha
Method in brief: as §1

southern crabgrass [25] = test: Test Example 5: herbicidal effect by foliage application, plastic box (Table 20, symbol F); format: in vivo, southern crabgrass (Digitaria ciliaris); conditions: amount of applied herbicide 320 g/ha; foliage application after 14-day growth; evaluated three weeks after application
Method in brief: as §2

rice flat sedge = test: Test Example 3: herbicidal effect by foliage application, Wagner pot (Table 18, symbol E); format: in vivo, rice flat sedge (Cyperus iria); conditions: 320 g/ha
Method in brief: as §3

SMILES	Herbicidal effect by foliage application, P: chickweed (chickweed [3])	Herbicidal effect by foliage application, I: wild oat (wild oat [5])	herbicidal effect on barnyard grass (H) (barnyard grass [6])	Herbicidal effect by foliage application, J: blackgrass (blackgrass [7])	Herbicidal effect by foliage application, G: green foxtail (green foxtail [10])	Herbicidal effect by foliage application, L: windgrass (windgrass [11])	Herbicidal effect by foliage application, O: lambsquarters (lambsquarters [13])	Herbicidal effect by foliage application, N: redroot pigweed (redroot pigweed [14])	Herbicidal effect by foliage application, M: velvetleaf (velvetleaf [16])	herbicidal effect on Chinese sprangletop (D) (Chinese sprangletop)	Herbicidal effect by foliage application, H: barnyard grass (barnyard grass [20])	Herbicidal effect by foliage application, K: Italian ryegrass (Italian ryegrass [22])	Herbicidal effect by foliage application, R: persian speedwell (persian speedwell [23])	Herbicidal effect by foliage application, F: southern crabgrass (southern crabgrass [25])	herbicidal effect on rice flat sedge (E) (rice flat sedge)	R: persian speedwell, herbicidal effect grade (persian speedwell [1])	J: blackgrass, herbicidal effect grade (blackgrass [2])	N: redroot pigweed, herbicidal effect grade (redroot pigweed [4])	G: green foxtail, herbicidal effect grade (green foxtail [8])	L: windgrass, herbicidal effect grade (windgrass [9])	also measured
COc1cccc(-c2sc3c(C)cccc3c2-c2c(O)c(C)nn(C)c2=O)c1 [4-108]	5 (Herbicidal rate of 90% or more (almost completely withered))	0 (Herbicidal rate of 5% or less (almost no effect))	4 (Herbicidal rate of 70% or more and less than 90%)	4 (Herbicidal rate of 70% or more and less than 90%)	3 (Herbicidal rate of 40% or more and less than 70%)	0 (Herbicidal rate of 5% or less (almost no effect))	4 (Herbicidal rate of 70% or more and less than 90%)	4 (Herbicidal rate of 70% or more and less than 90%)	4 (Herbicidal rate of 70% or more and less than 90%)	0 (Herbicidal rate of 5% or less (almost no effect))	2 (Herbicidal rate of 20% or more and less than 40%)	5 (Herbicidal rate of 90% or more (almost completely withered))	5 (Herbicidal rate of 90% or more (almost completely withered))	3 (Herbicidal rate of 40% or more and less than 70%)	5 (Herbicidal rate of 90% or more (almost completely withered))	–	–	–	–	–	Herbicidal effect by soil treatment, R: persian speedwell (persian speedwell [1]): 3 (Herbicidal rate of 40% or more and less than 70%); Herbicidal effect by soil treatment, J: blackgrass (blackgrass [2]): 2 (Herbicidal rate of 20% or more and less than 40%); Herbicidal effect by soil treatment, N: redroot pigweed (redroot pigweed [4]): 5 (Herbicidal rate of 90% or more (almost completely withered)); Herbicidal effect by soil treatment, G: green foxtail (green foxtail [8]): 0 (Herbicidal rate of 5% or less (almost no effect)); Herbicidal effect by soil treatment, L: windgrass (windgrass [9]): 0 (Herbicidal rate of 5% or less (almost no effect)); Herbicidal effect by soil treatment, F: southern crabgrass (southern crabgrass [12]): 2 (Herbicidal rate of 20% or more and less than 40%); Herbicidal effect by soil treatment, P: chickweed (chickweed [15]): 1 (Herbicidal rate of 5% or more and less than 20%); Herbicidal effect by soil treatment, M: velvetleaf (velvetleaf [17]): 3 (Herbicidal rate of 40% or more and less than 70%); Herbicidal effect by soil treatment, I: wild oat (wild oat [18]): 0 (Herbicidal rate of 5% or less (almost no effect)); Herbicidal effect by soil treatment, H: barnyard grass (barnyard grass [19]): 0 (Herbicidal rate of 5% or less (almost no effect)); Herbicidal effect by soil treatment, O: lambsquarters (lambsquarters [21]): 4 (Herbicidal rate of 70% or more and less than 90%); Herbicidal effect by soil treatment, K: Italian ryegrass (Italian ryegrass [24]): 1 (Herbicidal rate of 5% or more and less than 20%)
COc1ccc(-c2sc3cc(F)c(F)cc3c2-c2c(O)c(C)nn(C)c2=O)cc1OC [5-033]	5 (Herbicidal rate of 90% or more (almost completely withered))	0 (Herbicidal rate of 5% or less (almost no effect))	4 (Herbicidal rate of 70% or more and less than 90%)	0 (Herbicidal rate of 5% or less (almost no effect))	4 (Herbicidal rate of 70% or more and less than 90%)	0 (Herbicidal rate of 5% or less (almost no effect))	4 (Herbicidal rate of 70% or more and less than 90%)	3 (Herbicidal rate of 40% or more and less than 70%)	4 (Herbicidal rate of 70% or more and less than 90%)	3 (Herbicidal rate of 40% or more and less than 70%)	3 (Herbicidal rate of 40% or more and less than 70%)	4 (Herbicidal rate of 70% or more and less than 90%)	5 (Herbicidal rate of 90% or more (almost completely withered))	1 (Herbicidal rate of 5% or more and less than 20%)	4 (Herbicidal rate of 70% or more and less than 90%)	0 (Herbicidal rate of 5% or less (almost no effect))	0 (Herbicidal rate of 5% or less (almost no effect))	3 (Herbicidal rate of 40% or more and less than 70%)	3 (Herbicidal rate of 40% or more and less than 70%)	0 (Herbicidal rate of 5% or less (almost no effect))	F: southern crabgrass, herbicidal effect grade (southern crabgrass [12]): 3 (Herbicidal rate of 40% or more and less than 70%); P: chickweed, herbicidal effect grade (chickweed [15]): 1 (Herbicidal rate of 5% or more and less than 20%); M: velvetleaf, herbicidal effect grade (velvetleaf [17]): 0 (Herbicidal rate of 5% or less (almost no effect)); I: wild oat, herbicidal effect grade (wild oat [18]): 0 (Herbicidal rate of 5% or less (almost no effect)); H: barnyard grass, herbicidal effect grade (barnyard grass [19]): 3 (Herbicidal rate of 40% or more and less than 70%); O: lambsquarters, herbicidal effect grade (lambsquarters [21]): 4 (Herbicidal rate of 70% or more and less than 90%); K: Italian ryegrass, herbicidal effect grade (Italian ryegrass [24]): 0 (Herbicidal rate of 5% or less (almost no effect))
CCCC(=O)Oc1c(C)nn(C)c(=O)c1-c1c(-c2ccc(F)cc2)sc2cc(Cl)c(Cl)cc12 [5-040]	5 (Herbicidal rate of 90% or more (almost completely withered))	3 (Herbicidal rate of 40% or more and less than 70%)	4 (Herbicidal rate of 70% or more and less than 90%)	0 (Herbicidal rate of 5% or less (almost no effect))	1 (Herbicidal rate of 5% or more and less than 20%)	3 (Herbicidal rate of 40% or more and less than 70%)	3 (Herbicidal rate of 40% or more and less than 70%)	3 (Herbicidal rate of 40% or more and less than 70%)	1 (Herbicidal rate of 5% or more and less than 20%)	1 (Herbicidal rate of 5% or more and less than 20%)	2 (Herbicidal rate of 20% or more and less than 40%)	0 (Herbicidal rate of 5% or less (almost no effect))	4 (Herbicidal rate of 70% or more and less than 90%)	0 (Herbicidal rate of 5% or less (almost no effect))	0 (Herbicidal rate of 5% or less (almost no effect))	0 (Herbicidal rate of 5% or less (almost no effect))	0 (Herbicidal rate of 5% or less (almost no effect))	4 (Herbicidal rate of 70% or more and less than 90%)	3 (Herbicidal rate of 40% or more and less than 70%)	0 (Herbicidal rate of 5% or less (almost no effect))	F: southern crabgrass, herbicidal effect grade (southern crabgrass [12]): 0 (Herbicidal rate of 5% or less (almost no effect)); P: chickweed, herbicidal effect grade (chickweed [15]): 0 (Herbicidal rate of 5% or less (almost no effect)); M: velvetleaf, herbicidal effect grade (velvetleaf [17]): 2 (Herbicidal rate of 20% or more and less than 40%); I: wild oat, herbicidal effect grade (wild oat [18]): 0 (Herbicidal rate of 5% or less (almost no effect)); H: barnyard grass, herbicidal effect grade (barnyard grass [19]): 0 (Herbicidal rate of 5% or less (almost no effect)); O: lambsquarters, herbicidal effect grade (lambsquarters [21]): 0 (Herbicidal rate of 5% or less (almost no effect)); K: Italian ryegrass, herbicidal effect grade (Italian ryegrass [24]): 0 (Herbicidal rate of 5% or less (almost no effect))
